Measured values: patent publication US6642222B2, “Pyrano, piperidino, and thiopyrano compounds and methods of use” (Abbott Laboratories, priority 1998, dated 2003)

Tests used:
[1] = system: Guinea-Pig Bladder (GPB) Cells; experiment: Membrane Hyperpolarization (MHP) assay, DiBAC(4)3 / FLIPR; details: for Maximal Response (% P1075): maximal steady-state hyperpolarization, normalized to 10 μM P1075 (100%); for EC50: membrane hyperpolarization, GPB cells; for Emax: read-out: Maximal Response (% P1075), maximal steady-state hyperpolarization, normalized to 10 μM P1075 (100%)
Experimental: Compounds were evaluated for potassium channel opening activity using primary cultured guinea-pig urinary bladder (GPB) cells.
For the preparation of urinary bladder smooth muscle cells, urinary bladders were removed from male guinea-pigs (Hartley, Charles River, Wilmington, Mass.) weighing 300-400 grams (g) and placed in ice-cold Ca^2+-free Krebs solution (Composition, millimolar (mM): KCl, 2.7; KH2PO4, 1.5; NaCl, 75; Na2HPO4, 9.6; Na2HPO4.7H2O, 8; MgSO4, 2; glucose, 5; HEPES, 10; pH 7.4). Cells were isolated by enzymatic dissociation (Klockner, U. and Isenberg, G., Pflugers Arch. (1985), 405, 329-339). The bladder was cut into small sections and incubated in 5 milliliters (mL) of the Kreb's solution containing 1 milligram per milliliter (mg/mL) of collagenase (Sigma, St. Louis, Mo.) and 0.2 mg/mL of pronase (Calbiochem, La Jolla, Calif.) with continuous stirring in a cell incubator for 30 minutes. The mixture was then centrifuged at 1300× g for 5 minutes, and the pellet resuspended in Dulbecco's phosphate buffered saline (PBS) (GIBCO, Gaithersburg, Md.) and recentrifuged to remove residual enzyme. The cell pellet was resuspended in 5 mL growth media (composition: Dulbecco's modified Eagle's medium supplemented with 10% fetal bovine serum, 100 units/mL penicillin, 100 units/mL streptomycin and 0.25 mg/mL amphotericin B) and further dissociated by pipetting the suspension through a flame-polished Pasteur pipette and passing it through a polypropylene mesh membrane (Spectrum, Houston, Tex.). The cell density was adjusted to 100,000 cells/mL by resuspension in growth media. Cells were plated in clear-bottomed black 96-well plates (Packard) for membrane potential studies at a density of 20,000 cells/well and maintained in a cell incubator with 90% air: 10% CO2 until confluent. Cells were confirmed to be of smooth muscle type by cytoskeletal staining using a monoclonal mouse anti human-α-smooth muscle actin (Biomeda, Foster City, Calif.).
Functional activity at potassium channels was measured by evaluating changes in membrane potential using the bis-oxonol dye DiBAC(4)3 (Molecular Probes) in a 96-well cell-based kinetic assay system using a Fluorescent Imaging Plate Reader (FLIPR) (K. S. Schroeder et al., J. Biomed. Screen., v. 1 pp. 75-81 (1996)). DiBAC(4)3 is an anionic potentiometric probe which partitions between cells and extracellular solution in a membrane potential-dependent manner. With increasing membrane potential (for example, K^+ depolarization), the probe further partitions into the cell; this is measured as an increase in fluorescence due to dye interaction with intracellular lipids and proteins. Conversely, decreasing membrane potential (hyperpolarization by potassium channel openers) evokes a decrease in fluorescence.
Confluent guinea-pig urinary bladder cells cultured in black clear-bottomed 96-well plates were rinsed twice with 200 mL assay buffer (composition, mM: HEPES, 20; NaCl, 120; KCl, 2; CaCl2, 2; MgCl2, 1; glucose, 5; pH 7.4 at 25° C.) containing 5 μM DiBAC(4)3 and incubated with 180 mL of the buffer in a cell incubator for 30 minutes at 37° C. to ensure dye distribution across the membrane. After recording the baseline fluorescence for 5 minutes, the reference or test compounds, prepared at 10 times the concentration in the assay buffer, were added directly to the wells. Changes in fluorescence were monitored for an additional 25 minutes.
Routinely, five concentrations of P1075 or test compounds (log or half-log dilutions) were evaluated and the maximal steady-state hyperpolarization values (expressed as % relative to P1075) plotted as a function of concentration. The EC50 (concentration that elicites 50% of the maximal response for the test sample) values were calculated by non-linear regression analysis using a four parameter sigmoidal equation. The maximal micromolar EC50 response of each compound (expressed as % relative to P1075) is reported.

Landrace Pig Bladder = experiment: Functional potassium channel opening activity in isolated bladder strips (field-stimulated twitch); details: for Index: ED50 for P1075 divided by ED50 for the test agonist, averaged over tissues; for Efficacy (% P1075) / Emax: maximal efficacy relative to P1075, field stimulated bladder strips; for pD2 / EC50: negative logarithm of ED50; for Emax / EC50: Sus scrofa; for EC50: read-out: pD2 (converted)
Experimental: Compounds were evaluated for functional potassium channel opening activity using tissue strips obtained from Landrace pig bladders. Landrace pig bladders were obtained from female Landrace pigs of 9-30 kg. Landrace pigs were euthanized with an intraperitoneal injection of pentobarbital solution, Somlethal®, J. A. Webster Inc. Sterling Mass. The entire bladder was removed and immediately placed into Krebs Ringer bicarbonate solution (composition, mM: NaCl, 120; […] Dextrose, 4.7; […] Propranolol (0.004 mM) was included in all of the assays to block β-adrenoceptors. The trigonal and dome portions were […], Strips 3-5 […] (mm) wide and 20 mm long were prepared from the remaining tissue cut in a circular fashion. The mucosal layer was removed. One end was fixed to a stationary glass rod and the other to a Grass FT03 transducer at a basal preload of 1.0 g. Two parallel platinum electrodes were included in the stationary glass trod to provide field stimulation of 0.05 Hz, 0.5 milli-seconds at 20 volts. […] Tissues were allowed to equilibrate for at least 60 minutes and primed with 80 mM KCl. A control concentration response curve (cumulative) was generated for each tissue using the potassium channel opener […] as the control agonist. […] After a 60 minute rinsing period, a concentration response curve (cumulative) was generated for the test agonist in the same fashion as that used for the control agonist […]. The maximal efficacy of each compounds (expressed as % relative to […]) is reported. The amount of agent necessary to cause 50% of the agent's maximal response (ED50) was calculated using “ALLFIT” (DeLean et al., Am. J. […] Agonist potencies were also expressed as an index relative to […]. The index was calculated by dividing the ED50 for […] by the ED50 for the test agonist in a given tissue. Each tissue was used for only one test agonist, and the indices obtained from each tissue were averaged to provide an average index of potency.

Structure (SMILES) | Maximal Response (% P1075) [1] [% P1075] | EC50 [1] [nM] | Index (Landrace Pig Bladder) | Efficacy (% P1075) (Landrace Pig Bladder) | pD2 (Landrace Pig Bladder) | Emax (Landrace Pig Bladder) [%] | EC50 (Landrace Pig Bladder) [nM] | Maximal Response (% P1075) ([1]; Hydrochloride) | EC50 ([1]; Hydrochloride) [nM] | Index (Landrace Pig Bladder; Hydrochloride) | pD2 (Landrace Pig Bladder; Hydrochloride) | Efficacy (% P1075) (Landrace Pig Bladder; Hydrochloride) | EC50 ([1]; Cavia porcellus) [nM] | Emax ([1]; Cavia porcellus) [%]
O=C1COCC2=C1C(c1ccc(F)c(Br)c1)C1=C(CCS1(=O)=O)N2 (single isomer, unassigned; (+)) [Example 12, (+)-9-(3-bromo-4-fluorophenyl)-2,3,5,9-tetrahydro-4H-pyrano[3,4-b]thieno[2,3-e]pyridin-8(7H)-one 1,1-dioxide] | 101 | 14 | 3.3 | 85 | 7.2 |  |  |  |  |  |  |  |  | 
N#Cc1cccc(C2C3=C(COCC3=O)NC3=C2S(=O)(=O)CC3)c1 (single isomer, unassigned; (+)) [Example 15, (+)9-(3-cyanophenyl)-2,3,5,9-tetrahydro-4H-pyrano [3,4-b]thieno[2,3-e]pyridin-8(7H)-one 1,1-dioxide] | 90 | 640 | 0.027 |  |  | 100 | 2000 |  |  |  |  |  |  | 
O=C1COCC2=C1C(c1ccc(Cl)c([N+](=O)[O-])c1)C1=C(CCS1(=O)=O)N2 (single isomer, unassigned; (+)) [Example 18, (+)-9-(4-chloro-3-nitrophenyl)-2,3,5,9-tetrahydro-4H-pyrano[3,4-b]thieno[2,3-e]pyridin-8(7H)-one 1,1-dioxide] | 95 | 58 | 1.6 |  | 7.3 | 100 |  |  |  |  |  |  |  | 
Cl.O=C1CCC2=C1C(c1ccc(F)c(Br)c1)C1=C(CNCC1=O)N2 (single isomer, unassigned; (-)) [Example 5, (−)-5-(3-bromo-4-fluorolphenyl)-2,3,5,7,8,9-hexahydro-1H-cyclopenta[b][1,7]naphthyridine-4,6-dione Hydrochloride] |  |  |  | 100 |  |  |  | 97 | 190 | 0.16 | 6.4 |  |  | 
Cl.O=C1CCCC2=C1C(c1ccc(F)c(Br)c1)C1=C(CNCC1=O)N2 (single isomer, unassigned; (-)) [Example 7, (−)-5-(3-bromo-4-fluorophenyl)-2,3,5,8,9,10-hexahydrobenzo[b][1,7]naphthyridine-4,6(1H, 7H)-dione Hydrochloride] |  |  |  |  |  | 97 |  | 75 | 570 | 0.040 | 5.4 |  |  | 
O=C1COCC2=C1C(c1ccc(F)c(Br)c1)C1=C(CCS1(=O)=O)N2 (single isomer, unassigned; (-)) [Example 13, (−)-9-(3-bromo-4-fluorophenyl)-2,3,5,9-tetrahydro-4H-pyrano[3,4-b]thieno[2,3-e]pyridin-8(7H)-one 1,1-dioxide] | 101 | 240 | 0.13 | 98 | 5.9 |  |  |  |  |  |  |  |  | 
O=C1COCC2=C1C(c1ccc(Cl)c([N+](=O)[O-])c1)C1=C(CCS1(=O)=O)N2 (single isomer, unassigned; (-)) [Example 19, (−)-9-(4-chloro-3-nitrophenyl)-2,3,5,9-tetrahydro-4H-pyrano[3,4-b]thieno[2,3-e]pyridin-8(7H)-one 1,1-dioxide] | 94 | 1800 | 0.70 | 100 | 6.0 |  |  |  |  |  |  |  |  | 
O=C1COCC2=C1C(c1ccc(F)c(Br)c1)C1=C(COCC1=O)N2 [Example 1, 5-(3-bromo-4-fluorophenyl)-5,10-dihydro-1H,3H-dipyrano[3,4-b:4,3-e]pyridine-4,6(7H,9H)-dione] | 96 | 27 | 0.36 | 97 | 6.9 |  |  |  |  |  |  |  |  | 
Cl.O=C1CCCC2=C1C(c1ccc(F)c(Br)c1)C1=C(CNCC1=O)N2 (stereo not shown) [Example 2, 5-(3-bromo-4-fluorophenyl)-2,3,5,8,9,10-hexahydrobenzo [b][1,7]naphthyridine-4,6(1H, 7H)-dione Hydrochloride] |  |  |  |  |  |  |  | 88 | 650 | 0.041 | 5.8 | 99 |  | 
Cl.O=C1CNCC2=C1C(c1ccc(F)c(Br)c1)C1=C(CCCS1(=O)=O)N2 (stereo not shown) [Example 9, 10-(3-bromo-4-fluorophenyl)-3,4,6,7,8,10-hexahydro-2H-thiopyrano[3,2-b][1,7]naphthyridin-9(5H)-one 1,1-dioxide Hydrochloride] |  |  | 0.0015 |  |  | 82 | 126000 |  |  |  |  |  | 2600 | 89
Cl.O=C1CNCC2=C1C(c1ccc(F)c(Br)c1)C1=C(CCS1(=O)=O)N2 (stereo not shown) [Example 10, 9-(3-Bromo-4-fluorophenyl)-2,3,5,6,7,9-hexahydrothieno [3,2-b][1,7]naphthyridin-8(4H)-one, 1,1-dioxide hydrochloride] | 87 | 1400 | 0.0028 | 96 | 4.3 |  |  |  |  |  |  |  |  | 
O=C1COCC2=C1C(c1ccc(F)c(Br)c1)C1=C(CCS1(=O)=O)N2 (stereo not shown) [Example 11, 9-(3-bromo-4-fluorophenyl)-2,3,5,9-tetrahydro-4H-pyrano[3,4-b]thieno[2,3-e]pyridin-8(7H)-one 1,1-dioxide] |  | 23 | 1.2 |  | 6.8 | 91 |  |  |  |  |  |  |  | 104
O=C1CCCC2=C1C(c1ccc(F)c(Br)c1)C1=C(COCC1=O)N2 (stereo not shown) [Example 20, 5-(3-bromo-4-fluorophenyl)-5,8,9,10-tetrahydro-1H-pyrano[3,4-b]quinoline-4,6(3H, 7H)-dione] |  |  | 0.43 |  |  | 93 | 2510 |  |  |  |  |  | 35 | 93
O=C1COCC2=C1C(c1ccc(F)c(Br)c1)C1=C(CSCC1=O)N2 (stereo not shown) [Example 22, 5-(3-bromo-4-fluorophenyl)-5,10-dihydro-1H,3H-pyrano[3,4-b]thiopyrano[4,3-e]pyridine-4,6(7H,9H)-dione] |  |  | 0.027 |  |  | 100 | 2510 |  |  |  |  |  | 46 | 85
Cl.O=C1CNCC2=C1C(c1ccc(F)c(Br)c1)C1=C(COCC1=O)N2 (stereo not shown) [Example 24, 5-(3-bromo-4-fluorophenyl)-5,8,9,10-tetrahydro-1H-pyrano[3,4-b][1,7]naphthyridine-4,6(3H,7H)-dione Hydrochloride] |  |  | 0.055 |  |  | 100 | 1000 |  |  |  |  |  | 730 | 74
O=C1COCC2=C1C(c1ccc(Cl)c([N+](=O)[O-])c1)C1=C(COCC1=O)N2 [Example 28, 5-(4-chloro-3-nitrophenyl)-5,10-dihydro-1H,3H-dipyrano[3,4-b:4,3-e]pyridine-4,6(7H,9H)-dione] | 98 | 64 | 0.42 | 94 | 6.7 |  |  |  |  |  |  |  |  | 
N#Cc1cccc(C2C3=C(COCC3=O)NC3=C2C(=O)COC3)c1 [Example 29, 5-(3-cyanophenyl)-5,10-dihydro-1H,3H-dipyrano[3,4-b:4,3-e]pyridine-4,6(7H,9H)-dione] | 87 | 1100 | 0.075 | 89 | 5.8 |  |  |  |  |  |  |  |  | 
O=C1COCC2=C1C(c1ccc(F)c(I)c1)C1=C(COCC1=O)N2 [Example 30, 5-(4-fluoro-3-iodophenyl)-5,10-dihydro-1H,3H-dipyrano[3,4-b:4,3-e]pyridine-4,6(7H,9H)-dione] | 81 | 5 | 1.1 | 100 | 7.6 |  |  |  |  |  |  |  |  | 
O=C1COCC2=C1C(c1cc(Br)ccc1O)C1=C(COCC1=O)N2 [Example 31, 5-(5-bromo-2-hydroxyphenyl)-5,10-dihydro-1H,3H-dipyrano[3,4-b:4,3-e]pyridine-4,6(7H,9H)-dione] | 83 | 1300 | 0.065 | 85 | 5.1 |  |  |  |  |  |  |  |  | 
O=C1COCC2=C1C(c1ccc(F)c(C(F)(F)F)c1)C1=C(COCC1=O)N2 [Example 32, 5-[4-fluoro-3-(trifluoromethyl)phenyl]-5,10-dihydro-1H, 3H-dipyrano[3,4-b:4,3-e]pyridine-4,6(7H,9H)-dione] | 102 | 15 | 0.41 | 100 | 6.3 |  |  |  |  |  |  |  |  | 
